In PMC8201735 (BMC Pharmacology & Toxicology, 2021):
Like-named read-outs stand apart in the source and are kept apart here. Each block holds one compound with its values, some of them ahead of it.

Tests used:
[1] = Plasma pharmacokinetics of metformin with and without RE; format: in vivo, human; details: for AUC / Cmax: human, plasma, oral, geometric mean; for AUC: Metformin AUC (0-tau); for Cmax: Metformin Cmax
Protocol: (§1) PK analysis was conducted by […] (Chapel Hill, NC, USA), under the direction of Clinical Pharmacokinetics/Modelling and Simulation, GSK using the non-compartmental analysis Model 200 (for extra vascular administration) of WinNonlin Professional Edition version 4.1 (Pharsight Corporation, Mountain View, CA). […] Descriptive statistics were used to summarize baseline demographics, safety data, and pharmacokinetic parameters. Geometric mean and % CVb (between-subject coefficient of variation) were calculated for all pharmacokinetic parameters except tmax. Comparisons of placebo with each active dose of RE were assessed in terms of change from baseline in fasting plasma lactate acid using repeated measures analysis of covariance model. The model included terms for baseline measurement, visit, treatment and visit-by-treatment interaction. The same model was applied to change from baseline in weighted means of day-time, night-time and 0-24 h of blood pressures. Within group treatment comparison was performed using mixed model on log transformed Cmax and AUC (0-last).

[2] = Body weight; format: in vivo, human; details: Placebo + Metformin
Protocol: Body weight measurement was performed at screening and during inpatient Days- 1, 2, 4, 8, 13, and 14.

[3] = tested on: subjects with T2DM; experiment: Adverse event monitoring, RE co-administered with metformin for 13 days; format: in vivo, human
Excerpt: The study was comprised of three phases; run-in, randomization, and treatment. […] In treatment phase the patients were considered in two cohorts. […] The adverse events monitoring included recording of any adverse event (AE) and serious adverse event (SAE) reported or observed during the entire study and follow-up period. All the subjects were counseled to inform study staff of any AEs that occurred during the study. Any abnormal laboratory findings (e.g., clinical chemistry, hematology, and urinalysis) or other abnormal assessments (e.g., ECGs, vital signs, physical examination) that were judged by the investigator as clinically significant were recorded as AEs or SAE.

[4] = tested on: subjects with T2DM; experiment: Oral glucose tolerance test (75 g): weighted mean plasma glucose and insulin; format: in vivo, human; details: Day -1 (baseline); Placebo + Metformin
[5] = tested on: subjects with T2DM; details: RE 500 mg BID and metformin 500 mg BID for 3 days; cited from earlier work
[6] = tested on: subjects with T2DM; experiment: Surveillance for lactic acidosis: fasting plasma lactic acid concentration; format: in vivo, human
Protocol: The samples for acidosis analysis were collected at screening (following an overnight fast and prior to morning dose), once during the run-in phase, at baseline (Day- 1), mornings (prior to first dose and breakfast) of Days 1, 2, 3, and 4 (inpatient) and Days 6, 8, and 10 (outpatient) and Days 13 and 14 (inpatient). Subjects were not allowed to do rigorous exercise or physical labor during the treatment phase of the study and instructed to limit exercise 12 h before sampling.
Descriptive statistics were used to summarize baseline demographics, safety data, and pharmacokinetic parameters. Geometric mean and % CVb (between-subject coefficient of variation) were calculated for all pharmacokinetic parameters except tmax. Comparisons of placebo with each active dose of RE were assessed in terms of change from baseline in fasting plasma lactate acid using repeated measures analysis of covariance model. The model included terms for baseline measurement, visit, treatment and visit-by-treatment interaction. The same model was applied to change from baseline in weighted means of day-time, night-time and 0–24 h of blood pressures. Within group treatment comparison was performed using mixed model on log transformed Cmax and AUC (0-last).

[7] = tested on: subjects with T2DM; experiment: Oral glucose tolerance test (75 g): weighted mean plasma glucose and insulin; format: in vivo, human; details: Placebo + Metformin
Protocol: Oral glucose tolerance testing was performed on Day 1 and Day 13 using a 75 g oral glucose solution. Blood samples for the measurement of insulin and glucose were taken immediately before drug dosing (within 5 min of drug dosing), and at 30 min, 1, 1.5, 2, 3, 4, and 6 h following drug dosing.

[8] = Fluid balance assessment (intake - urine output); format: in vivo, human; details: Placebo + Metformin
[9] = Plasma pharmacokinetics of remogliflozin etabonate and its metabolites during metformin treatment; format: in vivo, human; details: for AUC / Cmax / Tmax: human, plasma; for AUC: read-out: AUC(0-tau), geometric mean (%CVb); for Cmax: read-out: Cmax, geometric mean (%CVb)
Protocol: as §1

[10] = Day 13, Metformin + Placebo group
[11] = Day 13 Metformin + RE 750 mg BID
[12] = Day -1 metformin alone, Metformin + Placebo group
[13] = Day -1 metformin alone, Metformin + RE 500 mg group
[14] = Day 13 Metformin + RE 500 mg BID
[15] = Day -1 metformin alone, Metformin + RE 750 mg group
[16] = Placebo BID + metformin, N = 17
[17] = oral, 500 mg, Day 1, after RE 500 mg BID + metformin, N = 16
[18] = oral, 500 mg, Day 13, after RE 500 mg BID + metformin, N = 15
[19] = oral, 750 mg, Day 1, after RE 750 mg BID + metformin, N = 17
[20] = oral, 750 mg, Day 13, after RE 750 mg BID + metformin, N = 16

Metformin Cmax, geometric mean [1, 10]: 2041 ng/mL | Metformin tmax, median [1, 10]: 2.5 h | Metformin Cmax, geometric mean [1, 11]: 1695 ng/mL | Metformin tmax, median [1, 11]: 2.0 h | Metformin tmax, median [1, 12]: 2.0 h | Metformin tmax, median [1, 13]: 3.0 h | AUC [1, 10]: 14000 ng·h/mL | AUC [1, 14]: 14700 ng·h/mL | AUC [1, 11]: 11400 ng·h/mL | AUC [1, 12]: 12300 ng·h/mL | AUC [1, 13]: 13900 ng·h/mL | AUC [1, 15]: 11300 ng·h/mL | Cmax [1, 14]: 2170 ng/mL | Cmax [1, 12]: 1970 ng/mL | Cmax [1, 13]: 2160 ng/mL | Cmax [1, 15]: 1760 ng/mL | Fasting plasma lactic acid, maximum on-therapy absolute values, Mean (SD) ([6]; Placebo BID + metformin): 1.554 (0.5094) mmol/L | Fasting plasma lactic acid, maximum on-therapy change from baseline, Mean (SD) ([6]; Placebo BID + metformin): 0.460 (0.2289) mmol/L | Fasting plasma lactic acid change from baseline, Mean (SD) ([6]; Study Day 2, Placebo BID + metformin): 0.16 (0.266) mmol/L | Fasting plasma lactic acid change from baseline, Mean (SD) ([6]; Study Day 6, Placebo BID + metformin): 0.08 (0.288) mmol/L | Fasting plasma lactic acid change from baseline, Mean (SD) ([6]; Study Day 13, Placebo BID + metformin): 0.00 (0.304) mmol/L | Subjects with lactic acid greater than the upper limits of normal (ULN) at any time ([6]; while receiving metformin alone, not sustained, minimally above ULN): four | Change in fluid balance, Mean (SD) ([8]; Day 2): 203.5 (999.83) ml | Change in fluid balance, Mean (SD) ([8]; Day 13): −42.0 (1262.56) ml
SMILES: CN(C)C(=N)N=C(N)N [Metformin, metformin, reference compound]
Change from baseline in body weight, Mean (SD) ([2]; Day 2): −0.70 (0.679) kg | Change from baseline in body weight, Mean (SD) ([2]; Day 14): −1.02 (0.845) kg | Any AE ([3]; Placebo BID + metformin >=2000 mg/day, 13 days, N = 17): 3 (18%) N(%) | Diarrhoea [3, 16]: 1 (6%) N(%) | Dizziness [3, 16]: 0 N(%) | Dyslipidemia [3, 16]: 0 N(%) | Supraventricular tachycardia [3, 16]: 0 N(%) | Thirst [3, 16]: 1 (6%) N(%) | Vomiting [3, 16]: 0 N(%) | Subjects with hypoglycemic laboratory events ([3]; placebo + metformin group, mild, resolved without intervention): one | Weighted mean plasma insulin following OGTT, Mean (SD) [4]: 176.85(104.735) pmol/L | Effect of metformin on the pharmacokinetics of RE or its metabolites [5]: no effect | Weighted mean plasma glucose following OGTT, Mean (SD) ([7]; Day 1 (baseline)): 12.65 (3.306) mmol/L | Weighted mean plasma insulin following OGTT, Mean (SD) ([7]; Day 13): 162.97(97.374) pmol/L | Weighted mean plasma glucose, change from baseline, Mean (SD) [7]: −0.10 (1.572) mmol/L | Weighted mean plasma insulin, change from baseline, Mean (SD) [7]: −13.88(42.349) pmol/L

AUC(0-tau) accumulation ratio Day 13 versus Day 1, point estimate (90% CI) ([9]; RE 500 mg + Metformin): 1.00 (0.907–1.10) | AUC(0-tau) accumulation ratio Day 13 versus Day 1, point estimate (90% CI) ([9]; RE 500 mg + Metformin, listed as remogliflozin): 1.00 (0.91, 1.10) | AUC(0-tau) accumulation ratio Day 13 versus Day 1, point estimate (90% CI) ([9]; RE 750 mg + Metformin): 0.82 (0.755–0.899) | AUC(0-tau) accumulation ratio Day 13 versus Day 1, point estimate (90% CI) ([9]; RE 750 mg + Metformin, listed as remogliflozin): 0.82 (0.755, 0.899) | AUC [9, 17]: 4890 ng·h/mL | Cmax [9, 17]: 2000 ng/mL | Tmax ([9]; oral, 500 mg, Day 1, after RE 500 mg BID + metformin, N = 16, read-out: tmax, median (range)): 0.77 h | AUC [9, 18]: 4930 ng·h/mL | Cmax [9, 18]: 1490 ng/mL | Tmax ([9]; oral, 500 mg, Day 13, after RE 500 mg BID + metformin, N = 15, read-out: tmax, median (range)): 3 h | Tmax ([9]; oral, 500 mg, RE 500 mg group, read-out: Time of peak concentrations (range)): 0.5 to 6 h | AUC [9, 19]: 8520 ng·h/mL | Cmax [9, 19]: 4010 ng/mL | Tmax ([9]; oral, 750 mg, Day 1, after RE 750 mg BID + metformin, N = 17, read-out: tmax, median (range)): 0.75 h | AUC [9, 20]: 7000 ng·h/mL | Cmax [9, 20]: 2510 ng/mL | Tmax ([9]; oral, 750 mg, Day 13, after RE 750 mg BID + metformin, N = 16, read-out: tmax, median (range)): 1.3 h | Tmax ([9]; po, after concomitant oral administration of RE with metformin (discussion), read-out: Time of peak concentration (range)): 0.5 to 4 h
SMILES: Cc1c(Cc2ccc(OC(C)C)cc2)c(O[C@@H]2O[C@H](CO)[C@@H](O)[C@H](O)[C@H]2O)nn1C(C)C [Remogliflozin, remogliflozin]
